The target in experiment [1] is T1, recombinant human estrogen receptor ERα ligand binding domain (Homo sapiens, UniProt P03372).
T1 construct: purchased Invitrogen PV4543
T1 sequence (P03372 311-547 limits assumed): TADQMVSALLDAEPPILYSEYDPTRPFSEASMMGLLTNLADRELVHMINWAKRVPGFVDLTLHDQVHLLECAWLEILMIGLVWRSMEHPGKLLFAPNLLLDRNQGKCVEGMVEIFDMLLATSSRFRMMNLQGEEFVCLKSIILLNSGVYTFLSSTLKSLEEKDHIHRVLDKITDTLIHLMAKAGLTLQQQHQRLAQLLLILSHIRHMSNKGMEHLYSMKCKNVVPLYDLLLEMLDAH
The experiment is described as follows: LanthaScreen TR-FRET competition binding assay with estrogen receptor ERα ligand binding domain. As to conditions: TR-FRET competition with Fluormone ES2, ERα-LBD (GST); read-out: IC50 (nM) ER Reporter. An excerpt:
The present invention utilizes the Lantha Screen™ Time-resolved Fluorescence Resonance Energy Transfer (TR-FRET) to assess the ability of the compounds to bind to the isolated ligand domain of estrogen receptor Era in competition assay. The fluorophore (Fluormone ES2, product code P2645) and the recombinant human estrogen receptor ERα ligand binding domain (product code PV4543) using in the TR-FRET were purchased from Invitrogen. The design principle of this assay is as follows: the estrogen receptor ERα-LBD (GST) and the fluorophore-containing ligand form a receptor/fluorophore complex, followed by the addition of terbium (Tb)-labeled anti-GST antibody (product code PV3551), the indirect labeling of the receptor is achieved by the linkage with the GST on the receptor, and the ability of competitive coordination between the test compound and the fluorescent ligand with the receptor is evaluated by detecting the attenuation of the TR-FRET effect between the chromophore (Tb-anti-GST antibody) on the fluorescent label ERα and the fluorescent ligand (Fluormone ES2). We used the following sample preparation and test methods for the test of the synthesized compounds. The instrument we used is Beckman Coulter BioPAPTR FRD microfluidic workstation.
(1) Acoustic dispense 120 nL of the test compound into a black low volume 384 well assay plates;
(2) Preparation of 1×ERα-LBD/Tb-anti-GST antibody complex in ES2 buffer and incubation therein for 20 minutes;
(3) The 1×ES2 was further added to the above ERα-LBD/Tb-anti-GST antibody complex solution before the test;
(4) 12 μL of the ERα-LBD/Tb-anti-GST antibody complex solution prepared in step 3 was added to the wells of the assay plate;
(5) The plates were shielded from light and incubated at room temperature for one hour; (6) At 337 nm excitation light, the emission light at 490 nm and 520 nm was detected by BMG Phera STAR.
The test compounds of a series of concentrations (10 mM, 0.1 mM, 1 μM and 10 nM) prepared on a microplate were transferred to the analytical plate using Labcyte Echo 550. 120 nL of DMSO solution for each test compound was added to each well of the assay plate and tested at 12 different concentrations (100, 29.17, 10.42, 2.083, 1, 0.292, 0.104, 0.02083, 0.01, 0.0029, 0.00104, 0.001 μM). The TR-FRET primitive fluorescence data was used to obtain the fitting curve software such as Origin or Genedata. Half maximal inhibitory concentration IC50 of each compound was used to characterize the competitive binding ability of the test compound with the estrogen receptor ERα. IC50 represents the concentration of the test compound that was calculated when the coordination of the tracer fluorophore (ES2) with the estrogen receptor was reduced by 50%, and the IC50 was determined as shown in Table 3.
In general terms: TR-FRET usually uses a lanthanide donor and a delayed reading to cut background.

In experiment [2] the test system is MCF-7 human breast cancer cell line. Briefly: Inhibition of MCF-7 cell proliferation (CCK-8). Format: cell-based. As to conditions: MCF7, MCF-7 cells, 72 hours. Here is the method: 1. Reagents and Consumables
Cell Counting Reagent Kit 8 (Cell Counting Kit-8, Cat# CK04-13, Dojindo);
96-well culture plate (Cat #3599, Corning Costar);
Medium and fetal bovine serum (GIBCO);
Desktop Microplate Reader (SpectraMax M5 Microplate Reader, Molecular Devices);
MCF-7 human breast cancer cell line (purchased from Shanghai cell resource center, Chinese Academy of Sciences).
2. Preparation of Reagents
Preparation of culture medium: MEM+10% FBS+0.01 mg/ml Human recombinant insulin; Preparation of the compound: The compounds were diluted with DMSO to a final concentration of 10 mM;
(1) The logarithmic growth phase cells were collected, counted, resuspended the cells with complete culture medium. The cells were adjusted to the appropriate concentration (determined according to the cell density optimization test results) and inoculated into 96-well plates, 100 μL of cell suspension per well. The cells were incubated in an incubator for 24 hours at 37° C. with 100% relative humidity, 5% CO2; […]
(5) The absorbance at 450 nm wavelength was measured on a SpectraMax M5 Microplate Reader after gently shaking. The inhibition rate was calculated using the absorbance at 650 nm as a reference. […]

Take `C[C@@H]1Cc2c([nH]c3ccccc23)[C@@H](c2c(F)cc(/C=C/C(=O)O)cc2F)N1CC1(F)CC1` [Example 1, (E)-3-(3,5-difluoro-4-((1R,3R)-2-((1-fluorocyclopropyl)methyl)-3-methyl-2,3,4,9-tetrahydro-1H-pyrido[3,4-b]indol-1-yl)phenyl)acrylic acid]: the IC50 in experiment [1] is 0.1 to 10 nM; in experiment [2], 0.34 nM.

For the compound `C[C@@H]1Cc2c([nH]c3cccc(F)c23)[C@@H](c2c(F)cc(/C=C/C(=O)O)cc2F)N1CC1(F)CC1` [Example 12, (E)-3-(3,5-difluoro-4-((1R,3R)-5-fluoro-2-((1-fluorocyclopropyl)methyl)-3-methyl-2,3,4,9-tetrahydro-1H-pyrido[3,4-b]indol-1-yl)phenyl)acrylic acid], the figures for the IC50 in experiment [1] and in experiment [2] were 0.1 to 10 nM and 1.45 nM, respectively.

The term IC50 denotes the concentration that inhibits the measured activity by half.
